#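 1) Cells in 96-well plates. 2) Compound, 48 h, 5 concentrations. 3) Linear interpolation between surrounding doses. 4) Unreached endpoint = highest concentration. At the GI50, growth is halved. The concentration for full growth arrest is given as TGI.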
# What was measured:
# Experiment in all cases: DTP human tumour cell line panel, 48 h
# UO-31 renal = test system: UO-31 renal
# NCI-H226 lung = test system: NCI-H226 lung
# A549 NSCLC = test system: A549 NSCLC
# MCF7 breast = test system: MCF7 breast
# COLO 205 colon = test system: COLO 205 colon
# OVCAR-8 ovarian = test system: OVCAR-8 ovarian
# M14 melanoma = test system: M14 melanoma
# SF-268 CNS = test system: SF-268 CNS
# SK-MEL-2 melanoma = test system: SK-MEL-2 melanoma
# SF-295 CNS = test system: SF-295 CNS
# SN12C renal = test system: SN12C renal
# 786-0 renal = test system: 786-0 renal
# ACHN renal = test system: ACHN renal
# NCI-H460 lung = test system: NCI-H460 lung
# MALME-3M melanoma = test system: MALME-3M melanoma
# MOLT-4 leukemia = test system: MOLT-4 leukemia
# LOX IMVI melanoma = test system: LOX IMVI melanoma
# TK-10 renal = test system: TK-10 renal
# SK-MEL-28 melanoma = test system: SK-MEL-28 melanoma
# HCT-15 colon = test system: HCT-15 colon
# A498 renal = test system: A498 renal
# HOP-92 NSCLC = test system: HOP-92 NSCLC
# HCT-116 colon = test system: HCT-116 colon
# K-562 leukemia = test system: K-562 leukemia
# NCI/ADR-RES ovarian = test system: NCI/ADR-RES ovarian
# CCRF-CEM leukemia = test system: CCRF-CEM leukemia
# RPMI-8226 leukemia = test system: RPMI-8226 leukemia
# U251 CNS = test system: U251 CNS
# OVCAR-5 ovarian = test system: OVCAR-5 ovarian
# SW-620 colon = test system: SW-620 colon
# UACC-62 melanoma = test system: UACC-62 melanoma
# SR leukemia = test system: SR leukemia
# UACC-257 melanoma = test system: UACC-257 melanoma
# SF-539 CNS = test system: SF-539 CNS
# CAKI-1 renal = test system: CAKI-1 renal
# HT29 colon = test system: HT29 colon
# HL-60(TB) leukemia = test system: HL-60(TB) leukemia
# PC-3 prostate = test system: PC-3 prostate
# SK-OV-3 ovarian = test system: SK-OV-3 ovarian
# SNB-19 CNS = test system: SNB-19 CNS
# SK-MEL-5 melanoma = test system: SK-MEL-5 melanoma
# DU-145 prostate = test system: DU-145 prostate
# OVCAR-3 ovarian = test system: OVCAR-3 ovarian
# HOP-62 NSCLC = test system: HOP-62 NSCLC
# BT-549 breast = test system: BT-549 breast
# T-47D breast = test system: T-47D breast
# MDA-MB-435 = test system: MDA-MB-435
# SNB-75 CNS = test system: SNB-75 CNS
# OVCAR-4 ovarian = test system: OVCAR-4 ovarian
# IGROV1 ovarian = test system: IGROV1 ovarian
# RXF 393 renal = test system: RXF 393 renal
# KM12 colon = test system: KM12 colon
# HCC-2998 colon = test system: HCC-2998 colon
# NCI-H23 lung = test system: NCI-H23 lung
# MDA-MB-231 breast = test system: MDA-MB-231 breast
structure (smiles),measurement,setting,value
COc1cc([C@@H]2c3cc4c(cc3[C@@H](Nc3ccc(C(=O)N[C@H]5CCc6cc(OC)c(OC)c(OC)c6-c6ccc(SC)c(=O)cc65)cc3)[C@H]3COC(=O)[C@H]23)OCO4)cc(OC)c1O,TGI,UO-31 renal,86.4 µM
same,TGI,NCI-H226 lung,> 100 µM
same,TGI,A549 NSCLC,> 100 µM
same,TGI,MCF7 breast,83 µM
same,TGI,COLO 205 colon,12.7 µM
same,TGI,OVCAR-8 ovarian,> 100 µM
same,TGI,M14 melanoma,52.2 µM
same,TGI,SF-268 CNS,> 100 µM
same,TGI,SK-MEL-2 melanoma,15.1 µM
same,TGI,SF-295 CNS,> 100 µM
same,TGI,SN12C renal,16.4 µM
same,TGI,786-0 renal,19.7 µM
same,TGI,ACHN renal,22.2 µM
same,TGI,NCI-H460 lung,14.2 µM
same,TGI,MALME-3M melanoma,15.1 µM
same,TGI,MOLT-4 leukemia,10.9 µM
same,TGI,LOX IMVI melanoma,> 100 µM
same,TGI,TK-10 renal,> 100 µM
same,TGI,SK-MEL-28 melanoma,> 100 µM
same,TGI,HCT-15 colon,> 100 µM
same,TGI,A498 renal,21.8 µM
same,TGI,HOP-92 NSCLC,19.3 µM
same,TGI,HCT-116 colon,> 100 µM
same,TGI,K-562 leukemia,> 100 µM
same,TGI,NCI/ADR-RES ovarian,17.3 µM
same,TGI,CCRF-CEM leukemia,16.1 µM
same,TGI,RPMI-8226 leukemia,38.8 µM
same,TGI,U251 CNS,15.2 µM
same,TGI,OVCAR-5 ovarian,> 100 µM
same,TGI,SW-620 colon,49.1 µM
same,TGI,UACC-62 melanoma,17.2 µM
same,TGI,SR leukemia,0.149 µM
same,TGI,UACC-257 melanoma,> 100 µM
same,TGI,SF-539 CNS,> 100 µM
same,TGI,CAKI-1 renal,13.4 µM
Cc1ccc(C)c(/C=C2\CN(C(=O)OC(C)(C)C)C/C(=C\c3cc(C)ccc3C)C2=O)c1,GI50,MCF7 breast,1.94 µM
same,TGI,MCF7 breast,> 100 µM
same,GI50,OVCAR-8 ovarian,3.56 µM
same,TGI,OVCAR-8 ovarian,> 100 µM
same,GI50,M14 melanoma,2.99 µM
same,TGI,M14 melanoma,> 100 µM
same,GI50,SF-268 CNS,2.76 µM
same,TGI,SF-268 CNS,> 100 µM
same,GI50,HT29 colon,3.26 µM
same,TGI,HT29 colon,> 100 µM
same,GI50,ACHN renal,3.07 µM
same,TGI,ACHN renal,> 100 µM
same,GI50,MOLT-4 leukemia,2.78 µM
same,TGI,MOLT-4 leukemia,> 100 µM
same,GI50,HL-60(TB) leukemia,2.52 µM
same,TGI,HL-60(TB) leukemia,> 100 µM
same,GI50,PC-3 prostate,2.71 µM
same,TGI,PC-3 prostate,> 100 µM
same,GI50,HCT-116 colon,1.43 µM
same,TGI,HCT-116 colon,5.34 µM
same,GI50,K-562 leukemia,2.94 µM
same,TGI,K-562 leukemia,> 100 µM
same,GI50,NCI/ADR-RES ovarian,3.48 µM
same,TGI,NCI/ADR-RES ovarian,> 100 µM
same,GI50,CCRF-CEM leukemia,2.49 µM
same,TGI,CCRF-CEM leukemia,> 100 µM
same,GI50,SK-OV-3 ovarian,> 100 µM
same,TGI,SK-OV-3 ovarian,> 100 µM
same,GI50,SR leukemia,2.53 µM
same,TGI,SR leukemia,> 100 µM
same,GI50,SNB-19 CNS,2.68 µM
same,TGI,SNB-19 CNS,> 100 µM
same,GI50,CAKI-1 renal,2.89 µM
same,TGI,CAKI-1 renal,> 100 µM
COC1=CC(c2ccc[nH]2)=N/C1=C\c1[nH]c(C)c(C(=O)CCCCC(=O)Oc2ccc3c(c2)CCC2C3CC[C@]3(C)[C@@H](O)CC[C@@H]23)c1C (some centres not stated),GI50,UO-31 renal,5.08 µM
same,TGI,UO-31 renal,> 100 µM
same,GI50,NCI-H226 lung,8.88 µM
same,TGI,NCI-H226 lung,> 100 µM
same,GI50,A549 NSCLC,6.58 µM
same,TGI,A549 NSCLC,> 100 µM
same,GI50,MCF7 breast,0.863 µM
same,TGI,MCF7 breast,> 100 µM
same,GI50,COLO 205 colon,> 100 µM
same,TGI,COLO 205 colon,> 100 µM
same,GI50,OVCAR-8 ovarian,> 100 µM
same,TGI,OVCAR-8 ovarian,> 100 µM
same,GI50,M14 melanoma,4.78 µM
same,TGI,M14 melanoma,> 100 µM
same,GI50,SK-MEL-5 melanoma,3.63 µM
same,TGI,SK-MEL-5 melanoma,> 100 µM
same,GI50,SF-268 CNS,> 100 µM
same,TGI,SF-268 CNS,> 100 µM
same,GI50,SK-MEL-2 melanoma,9.88 µM
same,TGI,SK-MEL-2 melanoma,> 100 µM
same,GI50,SF-295 CNS,> 100 µM
same,TGI,SF-295 CNS,> 100 µM
same,GI50,SN12C renal,> 100 µM
same,TGI,SN12C renal,> 100 µM
same,GI50,DU-145 prostate,9.57 µM
same,TGI,DU-145 prostate,> 100 µM
same,GI50,786-0 renal,5.64 µM
same,TGI,786-0 renal,> 100 µM
same,GI50,ACHN renal,5.14 µM
same,TGI,ACHN renal,> 100 µM
same,GI50,OVCAR-3 ovarian,> 100 µM
same,TGI,OVCAR-3 ovarian,> 100 µM
same,GI50,NCI-H460 lung,5.71 µM
same,TGI,NCI-H460 lung,> 100 µM
same,GI50,HOP-62 NSCLC,17.3 µM
same,TGI,HOP-62 NSCLC,> 100 µM
same,GI50,MOLT-4 leukemia,5.02 µM
same,TGI,MOLT-4 leukemia,> 100 µM
same,GI50,HL-60(TB) leukemia,> 100 µM
same,TGI,HL-60(TB) leukemia,> 100 µM
same,GI50,TK-10 renal,33.8 µM
same,TGI,TK-10 renal,> 100 µM
same,GI50,BT-549 breast,4.39 µM
same,TGI,BT-549 breast,> 100 µM
same,GI50,T-47D breast,1.39 µM
same,TGI,T-47D breast,4.25 µM
same,GI50,MDA-MB-435,5.47 µM
same,TGI,MDA-MB-435,> 100 µM
same,GI50,SK-MEL-28 melanoma,> 100 µM
same,TGI,SK-MEL-28 melanoma,> 100 µM
same,GI50,HCT-15 colon,3.56 µM
same,TGI,HCT-15 colon,> 100 µM
same,GI50,A498 renal,> 100 µM
same,TGI,A498 renal,> 100 µM
same,GI50,HOP-92 NSCLC,3.3 µM
same,TGI,HOP-92 NSCLC,29.2 µM
same,GI50,SNB-75 CNS,12.7 µM
same,TGI,SNB-75 CNS,> 100 µM
same,GI50,HCT-116 colon,3.1 µM
same,TGI,HCT-116 colon,13.6 µM
same,GI50,OVCAR-4 ovarian,9.44 µM
same,TGI,OVCAR-4 ovarian,> 100 µM
same,GI50,IGROV1 ovarian,31.1 µM
same,TGI,IGROV1 ovarian,> 100 µM
same,GI50,NCI/ADR-RES ovarian,> 100 µM
same,TGI,NCI/ADR-RES ovarian,> 100 µM
same,GI50,CCRF-CEM leukemia,0.668 µM
same,TGI,CCRF-CEM leukemia,> 100 µM
same,GI50,RPMI-8226 leukemia,4.11 µM
same,TGI,RPMI-8226 leukemia,> 100 µM
same,GI50,RXF 393 renal,25.8 µM
same,TGI,RXF 393 renal,> 100 µM
same,GI50,U251 CNS,7.79 µM
same,TGI,U251 CNS,> 100 µM
same,GI50,OVCAR-5 ovarian,> 100 µM
same,TGI,OVCAR-5 ovarian,> 100 µM
same,GI50,SW-620 colon,4.33 µM
same,TGI,SW-620 colon,> 100 µM
same,GI50,UACC-62 melanoma,3.58 µM
same,TGI,UACC-62 melanoma,> 100 µM
same,GI50,SK-OV-3 ovarian,> 100 µM
same,TGI,SK-OV-3 ovarian,> 100 µM
same,GI50,SR leukemia,3.21 µM
same,TGI,SR leukemia,> 100 µM
same,GI50,KM12 colon,6.66 µM
same,TGI,KM12 colon,> 100 µM
same,GI50,UACC-257 melanoma,> 100 µM
same,TGI,UACC-257 melanoma,> 100 µM
same,GI50,HCC-2998 colon,> 100 µM
same,TGI,HCC-2998 colon,> 100 µM
same,GI50,NCI-H23 lung,39.9 µM
same,TGI,NCI-H23 lung,> 100 µM
same,GI50,MDA-MB-231 breast,2 µM
same,TGI,MDA-MB-231 breast,8.04 µM
same,GI50,SNB-19 CNS,53.1 µM
same,TGI,SNB-19 CNS,> 100 µM
same,GI50,CAKI-1 renal,5.45 µM
same,TGI,CAKI-1 renal,> 100 µM
